The text below walks through data of US6727076B2 (priority 1995, dated 2004).

Peptide text beside a SMILES is read from it.

Experiment [1] has as its system E. coli 287 (ATCC #11775). Type of experiment: cell-based.
The test system of experiment [2] is E. coli strain 14445 (MG1655 himA). Format: cell-based.
Experiment [3] concerns E. coli strain 14444 (MG1655 xylA). Format: cell-based.
Another experiment concerns E. coli MG1655. Format: cell-based.
The next experiment concerns T. harzianum DAOM 190830. Format: cell-based, Trichoderma harzianum.
Another experiment relates to S. typhimurium pyrCΔ73. Format: cell-based, Salmonella typhimurium.
The test system of experiment [4] is E. coli strain 13673 (O157). Format: cell-based.
The subject of experiment [5] is E. coli strain 13675 (O157). Format: cell-based.
Experiment [6] relates to E. coli strain 11547 (O157:H7). Format: cell-based.
Experiment [7] relates to E. coli strain 13671 (O157:H? gur+). Type of experiment: cell-based.
Experiment [8] deals with E. coli strain 14443 (MG1655 (FB426)). Format: cell-based.

As to `OC[C@H]1O[C@H](O[C@H]2[C@H](O)[C@@H](O)[C@H](O)O[C@@H]2CO)[C@H](O)[C@@H](O)[C@@H]1O` [Maltose], in experiment [1], the “carbon source utilization result” value is “positive”. In addition, the “carbon source utilization, in words” value in experiment [2] and in experiment [3] was “negative” each time.
`O=C1CC[C@@H](C(=O)O)N1` [L-pyroglutamic acid]: in the experiment with E. coli MG1655, the “suitability as nitrogen source (growth, purple color)” value (“suitability as nitrogen source” for short) was “not suitable”. The “carbon source utilization result” value is “positive” with T. harzianum DAOM 190830 and “positive/negative” in experiment [1].
On to `Nc1nc2c(ncn2[C@H]2C[C@H](O)[C@@H](CO)O2)c(=O)[nH]1` [2′deoxyguanosine], for which the “growth stimulation by supplement (well color)” value (“growth stimulation” for short) in the experiment with S. typhimurium pyrCΔ73 is “turned weakly purple”.
On to `Nc1nc2nc[nH]c2c(=O)[nH]1` [guanine], for which the “growth stimulation” value in the experiment with S. typhimurium pyrCΔ73 was “turned weakly purple”.
For the molecule `O=C(O)[C@@H](O)[C@@H](O)[C@H](O)[C@@H](O)C(=O)O` [D-saccharic acid], the “carbon source utilization, in words” value in experiment [4], in [5], in experiment [6] and in experiment [7] was “negative” in each case.
Take `C[C@H](O)[C@@H](O)[C@@H](O)[C@H](O)C=O` [L-fucose]: the “carbon source utilization result” value (in the experiment on T. harzianum DAOM 190830; in experiment [1]) was “positive” throughout.
In the case of `O=c1ccn([C@H]2C[C@H](O)[C@@H](CO)O2)c(=O)[nH]1` [2-deoxyuridine], the “growth stimulation” value in the experiment on S. typhimurium pyrCΔ73 was “turned purple”.
In the case of `O=C[C@H](O)[C@@H](O)[C@@H](O)[C@H](O)CO` [D-galactose], the “carbon source utilization result” value (with T. harzianum DAOM 190830; in experiment [1]) was “positive” in each case.
In the case of `NCC(=O)N[C@@H](CCC(=O)O)C(=O)O` [Glycyl-L-glutamic acid] (H-Gly-Glu-OH), in the experiment on E. coli MG1655, the “suitability as nitrogen source” value is “positive”. Also, the “carbon source utilization result” value (in the experiment with T. harzianum DAOM 190830; in [1]) was “positive” in each case.
With `O=C[C@H](O)[C@@H](O)[C@@H](O)CO` [L-arabinose], the “carbon source utilization result” value (with T. harzianum DAOM 190830; in [1]) was “positive” throughout.
With `O=C[C@H](O)[C@@H](O)[C@@H](O)[C@H](O)C(=O)O` [D-galacturonic acid], the “carbon source utilization result” value (in the experiment on T. harzianum DAOM 190830; in experiment [1]) was “positive” throughout.
Regarding `CCC(=O)C(=O)O` [α-ketobutyric acid], in experiment [1], the “carbon source utilization result” value is on record as “positive”. The “carbon source utilization, in words” value in [2] was “negative”.
Take `OC[C@@H](O)[C@@H](O)[C@H](O)[C@H](O)CO` [D-mannitol]: the “carbon source utilization result” value (in the experiment with T. harzianum DAOM 190830; in experiment [1]) was “positive” in each case.
Consider `O=C[C@H](O)[C@@H](O)[C@H](O)CO` [D-xylose], for which the results for the “carbon source utilization, in words” value in [8] and in [3] were “positive” and “negative”, respectively.
As to `O=C(O)CC(O)(CC(=O)O)C(=O)O` [Citric acid], the entries for the “carbon source utilization result” value (in the experiment with T. harzianum DAOM 190830; in experiment [1]) were “positive” and “negative”, respectively.
In the case of `OC[C@H]1O[C@H](O)[C@H](O)[C@@H](O)[C@@H]1O` [α-D-glucose], the “carbon source utilization result” value (with T. harzianum DAOM 190830; in experiment [1]) was “positive” throughout.
Take `OC[C@@H](O)[C@@H](O)[C@H](O)[C@@H](O)CO` [D-sorbitol]: the “carbon source utilization, in words” value in experiment [4], in experiment [5], in [6] and in experiment [7] was “negative” in each case. Besides, the “carbon source utilization result” value (in the experiment with T. harzianum DAOM 190830; in experiment [1]) was “positive” each time.
As for `CCC(=O)O` [Propionic acid], the “carbon source utilization result” value in experiment [1] was “positive”. Moreover, the “carbon source utilization, in words” value in [2] is “negative”.
Consider `C[C@H](N)C(=O)NCC(=O)O` [L-alanyl-glycine] (H-Ala-Gly-OH), for which the “suitability as nitrogen source” value in the experiment with E. coli MG1655 is “positive”. Moreover, the “carbon source utilization result” value (with T. harzianum DAOM 190830; in [1]) was “positive” each time.
For the molecule `O=C(O)[C@]1(O)C[C@@H](O)[C@@H](O)[C@H](O)C1` [quinic acid], the “carbon source utilization result” value in the experiment on T. harzianum DAOM 190830 was “positive”; in [1], “negative”.
As to `N[C@@H](Cc1ccccc1)C(=O)O` [L-phenylalanine], in the experiment with E. coli MG1655, the “suitability as nitrogen source” value is given as “not suitable”. Also, the figures for the “carbon source utilization result” value (in the experiment with T. harzianum DAOM 190830; in [1]) were “positive” and “positive/negative”, respectively.
In the case of gentiobiose, the “carbon source utilization result” value with T. harzianum DAOM 190830 is “positive”; in experiment [1], “positive/negative”.
Take `CCC(O)C(=O)O` (stereo not drawn) [α-hydroxy butyric acid]: the “carbon source utilization, in words” value in [2] is on record as “negative”.
Same read-out and setting: next, `O=C(O)CO` [Glycolic acid]: “negative”.
With `CC(=O)N[C@H]1C(O)O[C@H](CO)[C@@H](O)[C@@H]1O` (stereo partly drawn) [N-acetyl-D-glucosamine], in the experiment with E. coli MG1655, the “suitability as nitrogen source” value is recorded as “positive”. For the same molecule, the “carbon source utilization result” value (in the experiment on T. harzianum DAOM 190830; in [1]) was “positive” throughout.
With `O=C(CO)[C@@H](O)[C@H](O)[C@H](O)CO` [D-fructose], the “carbon source utilization result” value (in the experiment on T. harzianum DAOM 190830; in [1]) was “positive” each time.
In the case of dextrin, the “carbon source utilization result” value (with T. harzianum DAOM 190830; in experiment [1]) was “positive” in each case.
In the case of `COC(=O)C(C)=O` [Methyl pyruvate], the “carbon source utilization result” value (with T. harzianum DAOM 190830; in [1]) was “positive” throughout.
Take `OCC(O)CO` [Glycerol]: the “carbon source utilization result” value (with T. harzianum DAOM 190830; in [1]) was “positive” throughout.
With `O=C(O)CCC(=O)O` [Succinic acid], the “carbon source utilization result” value (in the experiment with T. harzianum DAOM 190830; in experiment [1]) was “positive” throughout.
With `Nc1ccn([C@@H]2O[C@H](CO)[C@@H](O)[C@H]2O)c(=O)n1` [cytidine], the “growth stimulation” value in the experiment on S. typhimurium pyrCΔ73 is recorded as “turned purple”.
For `Nc1ncnc2c1ncn2[C@H]1C[C@H](O)[C@@H](CO)O1` [2′-deoxy-adenosine], the “growth stimulation” value with S. typhimurium pyrCΔ73 is listed as “turned weakly purple”.
For `CC(O)CC(=O)O` (stereo not drawn) [β-hydroxybutyric acid], the “carbon source utilization result” value with T. harzianum DAOM 190830 is “positive”; in [1], “negative”.
Turning to `OC[C@@H](O)C(O)[C@H](O)CO` [D-arabitol], the “carbon source utilization result” value is reported as “positive” in the experiment on T. harzianum DAOM 190830 and “negative” in experiment [1].
On to `Nc1ccn([C@H]2C[C@H](O)[C@@H](CO)O2)c(=O)n1` [2-deoxycytidine], for which, in the experiment with S. typhimurium pyrCΔ73, the “growth stimulation” value is listed as “turned purple”.
Consider `O=C[C@H](O)[C@@H](O)[C@H](O[C@@H]1O[C@H](CO)[C@@H](O)[C@H](O)[C@H]1O)[C@H](O)CO` [Cellobiose], for which the “carbon source utilization result” value in the experiment with T. harzianum DAOM 190830 is listed as “positive”; in experiment [1], “negative”.
With `O=C[C@@H](O)[C@@H](O)[C@H](O)[C@H](O)CO` [D-mannose], the “carbon source utilization result” value (in the experiment with T. harzianum DAOM 190830; in experiment [1]) was “positive” throughout.
Regarding `O=C(O)CC(Br)C(=O)O` (centres unmarked) [Bromo succinic acid], the “carbon source utilization result” value (in the experiment on T. harzianum DAOM 190830; in [1]) was “positive” throughout.
